Reference: publication PMC7249037, “Phenylpyrazalopyrimidines as Tyrosine Kinase Inhibitors: Synthesis, Antiproliferative Activity, and Molecular Simulations” (Molecules, 2020)
Where “and” joins values, the source holds several entries; their conditions need not be identical. Equal values may be shown once.

Key:
[1] = molecular target: T1, c-Src (Homo sapiens, UniProt P12931); assay: c-Src kinase activity assay (Transcreener ADP fluorescence intensity); type: biochemical; set-up: 0.7 nM of His6-Src kinase domain in kinase buffer; His6; conditions: in vitro Src kinase inhibition, His6-Src kinase domain, triplicate
Description: In summary, the kinase reaction was started in the 384-well low volume black microplate with the incubation of 2.5 μL of the reaction cocktail (0.7 nM of His6-Src kinase domain in kinase buffer) with 2.5 μL of prediluted compounds (dissolved in 10% DMSO, 4× target concentration) for 10 min at room temperature using microplate shaker. The reaction cocktail was made using the kinase buffer HEPES (200 mM, pH 7.5), MgCl2 (16 mM), EGTA (8 mM), DMSO (4%), Brij-35 (0.04%), and 2-mercaptoethanol (43 mM). The kinase reaction was started by adding 5 μL of ATP/substrate (40 μM/600 μM) cocktail and incubated for 30 min at room temperature on a microplate shaker. Src optimal peptide ([…]) was used as the substrate for the kinase reaction. The kinase reaction was stopped by adding 10 μL of the 1× ADP Detection Mixture to the enzyme reaction mixture and mixed using a plate shaker. The mixture was incubated at room temperature for 1 h, and the fluorescence intensity was measured. The 1× ADP Detection Mixture was prepared by adding ADP^2 Antibody-IRDyeR QC-1 (10 μg/mL) and ADP Alexa594 Tracer (8 nM) to Stop and Detect Buffer B(1×). The fluorescence Intensity measurements were performed using a fluorescence intensity optical module using the excitation of 580 nm and emission of 630 nm with bandwidths of 10 nm by Optima, BMG Labtech microplate reader (BMG Labtech, Ortenberg, Germany). The IC50 values of the compounds were calculated using ORIGIN 6.0 (Origin Lab, Microcal Software, Inc. Northhampton, MA, USA) software. […] All the experiments were carried out in triplicate.
Target sequence in this assay (P12931 270-523 limits assumed): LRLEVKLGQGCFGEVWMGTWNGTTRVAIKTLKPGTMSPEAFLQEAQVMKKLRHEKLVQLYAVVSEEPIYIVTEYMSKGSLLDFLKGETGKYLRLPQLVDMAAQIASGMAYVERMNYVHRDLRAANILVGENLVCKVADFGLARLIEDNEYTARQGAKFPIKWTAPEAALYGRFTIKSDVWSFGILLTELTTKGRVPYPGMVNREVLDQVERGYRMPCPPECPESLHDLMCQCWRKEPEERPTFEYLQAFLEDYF

[2] = tested on: CCRF-CEM cells; assay: Cell proliferation assay (CellTiter 96); type: cell-based, human; conditions: for reducing the cell proliferation (in words): 24–96 h
Description: (§1) Human leukemia cell line CCRF-CEM (ATCC no. CCL-119), human ovarian adenocarcinoma cell line SK-OV-3 (ATCC no. HTB-77), human breast carcinoma cell line MDA-MB-231 (ATCC no.HTB-26), and human colon adenocarcinoma cell line HT-29 (ATCC no. HTB-38) were obtained from American Type Culture Collection. Cells were grown on 75 cm^2 cell culture flasks with […] (for leukemia cells) and EMEM (Eagle’s minimum essential medium) (for SK-OV-3, HT-29, MDA-MB-231 cells), supplemented with 10% fetal bovine serum (FBS), and 1% penicillin-streptomycin solution (10,000 units of penicillin and 10 mg of streptomycin in 0.9% NaCl) in a humidified atmosphere of 5% CO2, 95% air at 37 °C.
(§2) The cell proliferation assay was carried out using a CellTiter 96 aqueous one-solution cell proliferation assay kit (Promega, Madison, WI, USA). Briefly, upon reaching about 75–80% confluence, 5000 cells/well were plated in 96-well microplate in 100 μL of the medium. After seeding for 24 h, the cells were treated with 50 µM compound in triplicate. Doxorubicin (10 µM) was used as a positive control. […] The plate was returned to the incubator for 1 h in a humidified atmosphere at 37 °C. The absorbance of the formazan product was measured at 490 nm using a microplate reader. The blank control was recorded by measuring the absorbance at 490 nm with wells containing medium mixed with CellTiter 96 aqueous solution but no cells. The percentage of cell survival was calculated as the OD value of cells treated with test compound − OD value of culture medium/(OD value of control cells − OD value of culture medium) × 100%. The same strategy was used for generating a dose-response graph for compound 10.

[3] = tested on: MDA-MB-231 cells; assay: Cell proliferation assay (CellTiter 96); type: cell-based, human; conditions: for reducing the cell proliferation (in words): 24–96 h
Description: as §1, §2

[4] = tested on: HT-29 cells; assay: Cell proliferation assay (CellTiter 96); type: cell-based, human; conditions: for reducing the cell proliferation (in words): 24–96 h
Description: as §1
(§3) The cell proliferation assay was carried out using a CellTiter 96 aqueous one-solution cell proliferation assay kit (Promega, Madison, WI, USA). Briefly, upon reaching about 75–80% confluence, 5000 cells/well were plated in 96-well microplate in 100 μL of the medium. After seeding for 24 h, the cells were treated with 50 µM compound in triplicate. Doxorubicin (10 µM) was used as a positive control. At the end of the sample exposure period (72 h), 20 µL of CellTiter 96 aqueous solution was added. The plate was returned to the incubator for 1 h in a humidified atmosphere at 37 °C. The absorbance of the formazan product was measured at 490 nm using a microplate reader. The blank control was recorded by measuring the absorbance at 490 nm with wells containing medium mixed with CellTiter 96 aqueous solution but no cells. The percentage of cell survival was calculated as the OD value of cells treated with test compound − OD value of culture medium/(OD value of control cells − OD value of culture medium) × 100%. The same strategy was used for generating a dose-response graph for compound 10.

[5] = tested on: SK-OV-3 cells; assay: Cell proliferation assay (CellTiter 96); type: cell-based, human; conditions: for reducing the cell proliferation (in words): 24–96 h; for IC50: SK-OV-3 cells, 72 h incubation
Description: as §1, §3

[6] = molecular target: T2, Akt1 (Homo sapiens, UniProt P31749); assay: Kinase panel, radiometric filter-binding (Reaction Biology); type: biochemical; conditions: 200 µM ATP, NA = not active, values above 1 µM estimated from curve fit
T2 construct: purchased Invitrogen (assay run by Reaction Biology Corporation) PR3878D
Description: Required cofactors were added individually to each kinase reaction. […] The serial dilution was conducted by Integra Viaflo Assist in DMSO.

[7] = molecular target: T3, Btk (Homo sapiens, UniProt Q06187); assay: as above; type: biochemical; conditions: 200 µM ATP, values above 1 µM estimated from curve fit
T3 construct: purchased Invitrogen (assay run by Reaction Biology Corporation) PV3363

[8] = molecular target: T4, Lck (Homo sapiens, UniProt P06239); assay: as above; type: biochemical; conditions: 200 µM ATP, values above 1 µM estimated from curve fit
T4 construct: purchased Invitrogen (assay run by Reaction Biology Corporation) P3043

[9] = molecular target: T1, c-Src; assay: as above; type: biochemical; set-up: purchased Invitrogen (assay run by Reaction Biology Corporation) P3044; conditions: 200 µM ATP, values above 1 µM estimated from curve fit
Target sequence in this assay (P12931 whole entry, the tested form may be a part): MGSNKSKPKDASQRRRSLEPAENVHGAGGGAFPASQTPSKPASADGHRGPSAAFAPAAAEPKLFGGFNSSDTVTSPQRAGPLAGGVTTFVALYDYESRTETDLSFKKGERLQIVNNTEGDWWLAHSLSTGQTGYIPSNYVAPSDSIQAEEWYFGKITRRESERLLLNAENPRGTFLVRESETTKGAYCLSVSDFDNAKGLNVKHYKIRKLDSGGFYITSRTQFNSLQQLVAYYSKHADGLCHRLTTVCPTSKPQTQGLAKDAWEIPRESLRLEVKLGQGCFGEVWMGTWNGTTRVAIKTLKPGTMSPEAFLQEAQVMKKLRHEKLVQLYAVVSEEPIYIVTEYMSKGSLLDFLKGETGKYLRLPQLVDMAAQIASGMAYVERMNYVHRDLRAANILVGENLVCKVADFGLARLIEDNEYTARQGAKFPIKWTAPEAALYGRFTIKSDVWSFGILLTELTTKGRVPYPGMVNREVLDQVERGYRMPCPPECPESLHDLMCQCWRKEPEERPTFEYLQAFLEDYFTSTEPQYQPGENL

T3 sequence (Q06187 whole entry): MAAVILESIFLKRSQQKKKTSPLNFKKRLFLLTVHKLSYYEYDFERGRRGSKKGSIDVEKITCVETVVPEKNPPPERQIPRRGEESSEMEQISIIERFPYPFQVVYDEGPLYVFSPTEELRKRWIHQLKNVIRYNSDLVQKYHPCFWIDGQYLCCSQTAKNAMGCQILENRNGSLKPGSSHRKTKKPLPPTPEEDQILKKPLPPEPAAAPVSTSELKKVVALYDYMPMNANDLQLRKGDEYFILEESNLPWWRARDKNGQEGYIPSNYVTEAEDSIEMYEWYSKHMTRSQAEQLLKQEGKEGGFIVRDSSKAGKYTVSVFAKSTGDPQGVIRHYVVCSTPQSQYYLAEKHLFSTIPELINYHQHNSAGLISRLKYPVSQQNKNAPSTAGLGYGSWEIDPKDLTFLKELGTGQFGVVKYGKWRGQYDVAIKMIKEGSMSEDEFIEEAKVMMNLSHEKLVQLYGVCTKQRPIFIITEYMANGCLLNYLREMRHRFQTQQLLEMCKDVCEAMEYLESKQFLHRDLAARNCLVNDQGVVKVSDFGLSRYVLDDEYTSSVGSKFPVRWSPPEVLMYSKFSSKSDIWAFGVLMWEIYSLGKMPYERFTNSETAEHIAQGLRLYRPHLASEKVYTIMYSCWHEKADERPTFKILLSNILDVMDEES
T4 sequence (P06239 whole entry): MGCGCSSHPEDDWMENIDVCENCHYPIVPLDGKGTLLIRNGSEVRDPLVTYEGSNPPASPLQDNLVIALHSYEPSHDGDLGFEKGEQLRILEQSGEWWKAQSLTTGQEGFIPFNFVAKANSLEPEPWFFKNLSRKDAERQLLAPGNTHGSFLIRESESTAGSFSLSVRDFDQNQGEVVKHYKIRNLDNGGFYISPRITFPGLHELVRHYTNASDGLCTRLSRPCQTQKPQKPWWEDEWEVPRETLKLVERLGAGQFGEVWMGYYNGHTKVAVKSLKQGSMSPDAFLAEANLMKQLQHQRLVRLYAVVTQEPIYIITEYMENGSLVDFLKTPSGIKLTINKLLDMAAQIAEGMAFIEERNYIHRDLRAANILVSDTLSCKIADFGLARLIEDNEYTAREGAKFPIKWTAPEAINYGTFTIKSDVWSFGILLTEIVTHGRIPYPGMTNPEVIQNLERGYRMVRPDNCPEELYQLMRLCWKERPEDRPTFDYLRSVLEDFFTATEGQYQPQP
T2 sequence (P31749 whole entry): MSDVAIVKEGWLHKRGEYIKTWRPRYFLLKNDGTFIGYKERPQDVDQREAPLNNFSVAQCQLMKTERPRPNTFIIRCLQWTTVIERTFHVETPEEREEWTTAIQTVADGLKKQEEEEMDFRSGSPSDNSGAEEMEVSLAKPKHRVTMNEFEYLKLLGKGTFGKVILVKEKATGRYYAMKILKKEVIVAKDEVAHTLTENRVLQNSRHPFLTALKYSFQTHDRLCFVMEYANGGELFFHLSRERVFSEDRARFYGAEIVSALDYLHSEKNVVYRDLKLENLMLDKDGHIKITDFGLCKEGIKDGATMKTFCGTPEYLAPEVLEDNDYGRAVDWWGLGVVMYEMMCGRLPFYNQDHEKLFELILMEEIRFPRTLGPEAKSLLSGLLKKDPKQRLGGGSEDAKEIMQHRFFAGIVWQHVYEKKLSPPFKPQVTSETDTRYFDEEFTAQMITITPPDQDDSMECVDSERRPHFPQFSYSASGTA

Compound | IC50 [1] | reducing the cell proliferation (in words) ([2]; 50 µM) | reducing the cell proliferation (in words) ([3]; MDA-MB-231, 50 µM) | reducing the cell proliferation (in words) ([4]; HT-29, 50 µM) | reducing the cell proliferation (in words) ([5]; SK-OV-3, 50 µM) | further results
CC(=O)/C(=C\c1ccc(-c2ccccc2)cc1)n1nc(-c2ccccc2)c2c(N)ncnc21 [Compound 5, 3-(4-Amino-3-phenyl-1H-pyrazolo[3,4-d]pyrimidin-1-yl)-4-p-biphenylbut-3-en-2-one] | 192 µM |  |  |  |  | 
CC(=O)C(=Cc1ccc(N(C)C)cc1)n1nc(-c2ccccc2)c2c(N)ncnc21 [Compound 7, 3-(4-Amino-3-phenyl-1H-pyrazolo[3,4-d]pyrimidin-1-yl)-4-(4-(dimethylamino)phenyl)but-3-en-2-one] | 36.9 µM | inactive | inactive | inactive | inactive | 
CC(=O)C(=Cc1ccc(Cl)cc1)n1nc(-c2ccccc2)c2c(N)ncnc21 [Compound 10, 3-(4-Amino-3-phenyl-1H-pyrazolo[3,4-d]pyrimidin-1-yl)-4-(4-chlorophenyl)but-3-en-2-one] |  |  |  |  |  | IC50 [6]: > 150 µM; IC50 [7]: 90.5 µM and 95.4 µM; IC50 [8]: 110 µM; inhibition at 50 µM ([2]; Homo sapiens, 50 µM, 96 h): 79%; inhibition at 50 µM ([3]; Homo sapiens, MDA-MB-231, 50 µM, 96 h): 60%; inhibition at 50 µM ([4]; Homo sapiens, HT-29, 50 µM, 96 h): 90%; inhibition at 50 µM ([5]; Homo sapiens, SK-OV-3, 50 µM, 96 h): 79%; IC50 ([5]; Homo sapiens): 25.5 µM; IC50 [9]: 60.4 µM and 64.1 µM
COc1ccc(C=C(C(C)=O)n2nc(-c3ccccc3)c3c(N)ncnc32)cc1 [Compound 6, 3-(4-Amino-3-phenyl-1H-pyrazolo[3,4-d]pyrimidin-1-yl)-4-(4-methoxyphenyl)but-3-en-2-one] | 21.7 µM |  |  |  |  | 
CC(=O)C(=Cc1cccc(C)c1)n1nc(-c2ccccc2)c2c(N)ncnc21 [Compound 4, 3-(4-Amino-3-phenyl-1H-pyrazolo[3,4-d]pyrimidin-1-yl)-4-m-tolylbut-3-en-2-one] | 24.7 µM |  |  |  |  | 
COc1cccc2c1C(=O)c1c(O)c3c(c(O)c1C2=O)C[C@@](O)(C(=O)CO)C[C@@H]3O[C@H]1C[C@H](N)[C@H](O)[C@H](C)O1 [Dox, Doxorubicin, reference compound] |  |  |  |  |  | inhibition at 1 µM ([2]; Homo sapiens, Dox positive control (1 µM in Figure 3, 10 µM in method), 96 h): 73%; inhibition at 1 µM ([3]; Homo sapiens, MDA-MB-231, Dox positive control (1 µM in Figure 3, 10 µM in method), 96 h): 64%; inhibition at 1 µM ([4]; Homo sapiens, HT-29, Dox positive control (1 µM in Figure 3, 10 µM in method), 96 h): 75%; inhibition at 1 µM ([5]; Homo sapiens, SK-OV-3, Dox positive control (1 µM in Figure 3, 10 µM in method), 96 h): 73%
CC(=O)C(=Cc1ccc(C)cc1)n1nc(-c2ccccc2)c2c(N)ncnc21 [Compound 3, 3-(4-Amino-3-phenyl-1H-pyrazolo[3,4-d]pyrimidin-1-yl)-4-p-tolylbut-3-en-2-one] | 32.9 µM |  |  |  |  | 
CC(=O)C(=Cc1ccccc1Cl)n1nc(-c2ccccc2)c2c(N)ncnc21 [Compound 12, 3-(4-Amino-3-phenyl-1H-pyrazolo[3,4-d]pyrimidin-1-yl)-4-(2-chlorophenyl)but-3-en-2-one] |  | inactive | inactive | inactive | inactive | 
CC(=O)C(=Cc1ccc(Cl)cc1Cl)n1nc(-c2ccccc2)c2c(N)ncnc21 [Compound 11, 3-(4-Amino-3-phenyl-1H-pyrazolo[3,4-d]pyrimidin-1-yl)-4-(2,4-dichlorophenyl)but-3-en-2-one] |  |  |  |  |  | IC50 ([5]; Homo sapiens): 34.3 µM
CC(=O)C(=Cc1cccc([N+](=O)[O-])c1)n1nc(-c2ccccc2)c2c(N)ncnc21 [Compound 9, 3-(4-Amino-3-phenyl-1H-pyrazolo[3,4-d]pyrimidin-1-yl)-4-(3-nitrophenyl)but-3-en-2-one] |  | inactive | inactive | inactive | inactive | 
CC(=O)Cn1nc(-c2ccccc2)c2c(N)ncnc21 [Compound 2, 1-(4-Amino-3-phenyl-1H-pyrazolo[3,4-d]pyrimidin-1-yl)propan-2-one] |  | inactive | inactive | inactive | inactive | 
